The source of these data is patent publication US7033812B2, “β-secretase and modulation of β-secretase activity” (Scios Inc., priority 1999, dated 2006).

The test system of the experiment is neutral β-secretase activity. Briefly: β-secretase ELISA (βNTF) with partially purified APP/β-secretase mixture, pH 7.0. The experiment is classed as biochemical, human. (ELISA stands for enzyme-linked immunosorbent assay.)

Consider `NCCc1ccc(S(=O)(=O)F)cc1` [AEBSF], for which the β-secretase inhibition entry (pH 7) is “dose-dependent β-secretase inhibition”. As for cardiolipin, the “detectable levels of β-secretase activity” value (cardiolipin 0.01–100 μM in assay buffer, pH 7.0, 37° C. 16 hours, FIG. 4A) is given as “dose-dependent increase”.
